Results reported in PubChem BioAssay (NCI).
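In this assay, cells in 96-well plates receive the compound at five concentrations for 48 hours. Endpoints are linearly interpolated between the surrounding concentrations. Abbreviation: GI50, concentration required for 50% inhibition of growth. Definition used: TGI = concentration required for complete inhibition of growth.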

Legend:
Assay in all cases: growth of human tumour cells (NCI), 48 h
SF-268 CNS = system: SF-268 CNS
HCT-15 colon = system: HCT-15 colon
ACHN renal = system: ACHN renal
NCI-H522 lung = system: NCI-H522 lung
M14 melanoma = system: M14 melanoma
SNB-19 CNS = system: SNB-19 CNS
SR leukemia = system: SR leukemia
786-0 renal = system: 786-0 renal
IGROV1 ovarian = system: IGROV1 ovarian
HCC-2998 colon = system: HCC-2998 colon
A549 NSCLC = system: A549 NSCLC
OVCAR-8 ovarian = system: OVCAR-8 ovarian
SK-MEL-2 melanoma = system: SK-MEL-2 melanoma
NCI-H23 lung = system: NCI-H23 lung
BT-549 breast = system: BT-549 breast
CAKI-1 renal = system: CAKI-1 renal
NCI/ADR-RES ovarian = system: NCI/ADR-RES ovarian
MCF7 breast = system: MCF7 breast
HT29 colon = system: HT29 colon
T-47D breast = system: T-47D breast
SN12C renal = system: SN12C renal
OVCAR-5 ovarian = system: OVCAR-5 ovarian
UACC-257 melanoma = system: UACC-257 melanoma
MOLT-4 leukemia = system: MOLT-4 leukemia
NCI-H460 lung = system: NCI-H460 lung
DU-145 prostate = system: DU-145 prostate
LOX IMVI melanoma = system: LOX IMVI melanoma
U251 CNS = system: U251 CNS
HOP-92 NSCLC = system: HOP-92 NSCLC

FC(F)c1ncc(-c2ccc(C(F)(F)F)cc2)c(NC2CCCCCC2)n1
TGI (SF-268 CNS): > 10 µM | GI50 (HCT-15 colon): > 10 µM | TGI (HCT-15 colon): > 10 µM | GI50 (ACHN renal): > 10 µM | TGI (ACHN renal): > 10 µM | GI50 (NCI-H522 lung): > 10 µM | TGI (NCI-H522 lung): > 10 µM | GI50 (M14 melanoma): > 10 µM | TGI (M14 melanoma): > 10 µM | GI50 (SNB-19 CNS): > 10 µM | TGI (SNB-19 CNS): > 10 µM | GI50 (SR leukemia): > 10 µM | TGI (SR leukemia): > 10 µM | GI50 (786-0 renal): > 10 µM | TGI (786-0 renal): > 10 µM | GI50 (IGROV1 ovarian): > 10 µM | TGI (IGROV1 ovarian): > 10 µM | GI50 (HCC-2998 colon): > 10 µM | TGI (HCC-2998 colon): > 10 µM | GI50 (A549 NSCLC): > 10 µM | TGI (A549 NSCLC): > 10 µM | GI50 (OVCAR-8 ovarian): > 10 µM | TGI (OVCAR-8 ovarian): > 10 µM | GI50 (SK-MEL-2 melanoma): > 10 µM | TGI (SK-MEL-2 melanoma): > 10 µM | GI50 (NCI-H23 lung): > 10 µM | TGI (NCI-H23 lung): > 10 µM | GI50 (BT-549 breast): > 10 µM | TGI (BT-549 breast): > 10 µM | GI50 (CAKI-1 renal): > 10 µM | TGI (CAKI-1 renal): > 10 µM | GI50 (NCI/ADR-RES ovarian): > 10 µM | TGI (NCI/ADR-RES ovarian): > 10 µM | GI50 (MCF7 breast): > 10 µM | TGI (MCF7 breast): > 10 µM | GI50 (HT29 colon): > 10 µM | TGI (HT29 colon): > 10 µM | GI50 (T-47D breast): > 10 µM | TGI (T-47D breast): > 10 µM | GI50 (SN12C renal): > 10 µM | TGI (SN12C renal): > 10 µM | GI50 (OVCAR-5 ovarian): > 10 µM | TGI (OVCAR-5 ovarian): > 10 µM | GI50 (UACC-257 melanoma): > 10 µM | TGI (UACC-257 melanoma): > 10 µM | GI50 (MOLT-4 leukemia): > 10 µM | TGI (MOLT-4 leukemia): > 10 µM | GI50 (NCI-H460 lung): > 10 µM | TGI (NCI-H460 lung): > 10 µM | GI50 (DU-145 prostate): > 10 µM | TGI (DU-145 prostate): > 10 µM | GI50 (LOX IMVI melanoma): > 10 µM | TGI (LOX IMVI melanoma): > 10 µM | GI50 (U251 CNS): > 10 µM | TGI (U251 CNS): > 10 µM | GI50 (HOP-92 NSCLC): > 10 µM | TGI (HOP-92 NSCLC): > 10 µM
